Test results published in patent US11872222B2, “Uses” (NeRRe Therapeutics Limited, priority 2020, dated 2024).

Tests used:
[1] = test system: VILI mouse model of mechanical injury to the lungs; assay: VILI mouse model: physiological variables (peak inspiratory pressure, elastance); format: in vivo, mice
Procedure: Orvepitant was evaluated in a VILI mouse model of mechanical injury to the lungs.
Male C57/BL6 mice were pre-treated with oral orvepitant (250 mg/kg) or vehicle control (10 ml/kg, 0.1% tween 80:0.5% hydroxypropyl methylcellulose [HPMC]), approximately 30 minutes before initiation of experimental ventilation.
Mice were anesthetized and tracheotomised for ventilation. The left carotid artery was cannulated to monitor blood pressure (BP), infuse heparinised saline (0.4 ml/hr of 10 units/ml of heparin), and measure sequential blood gas analyses. Airway pressure was monitored continuously, while respiratory mechanics including respiratory resistance (Rrs) and elastance (Ers), were measured at predetermined intervals by end-inflation occlusion. Vehicle-treated or orvepitant-treated animals were ventilated with high tidal volume (33-37 ml/kg) for up to 150 minutes or until a mortality surrogate (increase of >25% peak inspiratory pressure) was reached. As a control group, vehicle-treated animals only were ventilated with low tidal volume (8-9 ml/kg) to confirm the impact of injurious ventilation. Following termination, bronchoalveolar lavage fluid (BAL) was collected for analysis and lungs were processed for flow cytometric evaluation of leukocyte numbers and expression of ICAM-1 on alveolar macrophages and epithelial cells.
Data were evaluated for normality by Shapiro-Wilk test of residuals and QQ plots. Normally distributed data were evaluated by t-test for end-point analysis, or 2-way ANOVA for time courses. Non-normally distributed data were evaluated by Mann-Whitney U test. N=6-7 animals for each dataset.

[2] = test system: VILI mouse model of mechanical injury to the lungs; assay: VILI mouse model: flow cytometric analyses of lung cell suspensions (leukocyte numbers, ICAM-1 surface expression); format: in vivo; settings: male C57/BL6 mice, oral 250 mg/kg pre-treatment, high tidal volume ventilation, flow cytometry, FIG. 2
Procedure: Orvepitant was evaluated in a VILI mouse model of mechanical injury to the lungs. Male C57/BL6 mice were pre-treated with oral orvepitant (250 mg/kg) or vehicle control (10 ml/kg, 0.1% tween 80:0.5% hydroxypropyl methylcellulose [HPMC]), approximately 30 minutes before initiation of experimental ventilation. Mice were anesthetized and tracheotomised for ventilation. The left carotid artery was cannulated to monitor blood pressure (BP), infuse heparinised saline (0.4 ml/hr of 10 units/ml of heparin), and measure sequential blood gas analyses. Airway pressure was monitored continuously, while respiratory mechanics including respiratory resistance (Rrs) and elastance (Ers), were measured at predetermined intervals by end-inflation occlusion. Vehicle-treated or orvepitant-treated animals were ventilated with high tidal volume (33-37 ml/kg) for up to 150 minutes or until a mortality surrogate (increase of >25% peak inspiratory pressure) was reached. As a control group, vehicle-treated animals only were ventilated with low tidal volume (8-9 ml/kg) to confirm the impact of injurious ventilation. Following termination, bronchoalveolar lavage fluid (BAL) was collected for analysis and lungs were processed for flow cytometric evaluation of leukocyte numbers and expression of ICAM-1 on alveolar macrophages and epithelial cells. Data were evaluated for normality by Shapiro-Wilk test of residuals and QQ plots. Normally distributed data were evaluated by t-test for end-point analysis, or 2-way ANOVA for time courses. Non-normally distributed data were evaluated by Mann-Whitney U test. N=6-7 animals for each dataset. Flow cytometric analyses. Lung cell suspensions were evaluated for quantification of neutrophils and Ly6C high inflammatory (Ly6CN) monocytes by flow cytometry. […] Activation of alveolar macrophages and type 1 and type 2 epithelial cells was determined by assaying for surface expression of ICAM-1.

[3] = test system: VILI mouse model of mechanical injury to the lungs; assay: VILI mouse model: bronchoalveolar lavage fluid (BAL) markers; format: in vivo; settings: male C57/BL6 mice, oral 250 mg/kg pre-treatment, high tidal volume ventilation; FIG. 3
Procedure: Orvepitant was evaluated in a VILI mouse model of mechanical injury to the lungs. Male C57/BL6 mice were pre-treated with oral orvepitant (250 mg/kg) or vehicle control (10 ml/kg, 0.1% tween 80:0.5% hydroxypropyl methylcellulose [HPMC]), approximately 30 minutes before initiation of experimental ventilation. Mice were anesthetized and tracheotomised for ventilation. The left carotid artery was cannulated to monitor blood pressure (BP), infuse heparinised saline (0.4 ml/hr of 10 units/ml of heparin), and measure sequential blood gas analyses. Airway pressure was monitored continuously, while respiratory mechanics including respiratory resistance (Rrs) and elastance (Ers), were measured at predetermined intervals by end-inflation occlusion. Vehicle-treated or orvepitant-treated animals were ventilated with high tidal volume (33-37 ml/kg) for up to 150 minutes or until a mortality surrogate (increase of >25% peak inspiratory pressure) was reached. As a control group, vehicle-treated animals only were ventilated with low tidal volume (8-9 ml/kg) to confirm the impact of injurious ventilation. Following termination, bronchoalveolar lavage fluid (BAL) was collected for analysis and lungs were processed for flow cytometric evaluation of leukocyte numbers and expression of ICAM-1 on alveolar macrophages and epithelial cells. Data were evaluated for normality by Shapiro-Wilk test of residuals and QQ plots. Normally distributed data were evaluated by t-test for end-point analysis, or 2-way ANOVA for time courses. Non-normally distributed data were evaluated by Mann-Whitney U test. N=6-7 animals for each dataset. Bronchoalveolar lavage fluid (BAL) markers. BAL total protein concentration was measured as a marker of alveolar-epithelial barrier permeability.

Compound: Cc1cc(F)ccc1[C@H]1C[C@@H](N2CCN3C(=O)CC[C@H]3C2)CCN1C(=O)N(C)[C@H](C)c1cc(C(F)(F)F)cc(C(F)(F)F)c1 [orvepitant]
- Peak inspiratory pressure at the start of ventilation ([1]; male C57/BL6 mice, oral 250 mg/kg approx. 30 min before ventilation, vs vehicle): identical between vehicle and orvepitant pre-treated animals
- Course of peak inspiratory pressure change over time ([1]; male C57/BL6 mice, oral 250 mg/kg pre-treatment, high tidal volume (33-37 ml/kg) ventilation up to 150 min, vs vehicle, FIG. 1): significantly different between groups
- 'End' peak inspiratory pressure (final value recorded) ([1]; male C57/BL6 mice, oral 250 mg/kg pre-treatment, high tidal volume ventilation, 150 min or mortality surrogate, vs vehicle, FIG. 1): significantly higher in vehicle-treated animals than those receiving orvepitant
- Changes in respiratory system elastance over time ([1]; male C57/BL6 mice, oral 250 mg/kg pre-treatment, high tidal volume ventilation, vs vehicle, FIG. 1): differences between groups did not quite achieve statistical significance
- Mechanical lung injury induced by mechanical ventilation (overall conclusion) ([1]; mice, oral pretreatment): substantial, significant attenuation
- Ly6C high inflammatory monocyte numbers within lung tissue ([2]; vs vehicle): significant decrease
- Neutrophil numbers within lung tissue ([2]; vs vehicle): significant decrease
- Upregulation of ICAM-1 surface expression on alveolar macrophages [2]: significantly attenuated
- Upregulation of ICAM-1 surface expression on type 1 epithelial cells [2]: significantly attenuated
- Upregulation of ICAM-1 surface expression on type 2 epithelial cells [2]: significantly attenuated
- Increase in BAL IL-6 [3]: significantly attenuated
- Increase in BAL MCP-1 [CCL-2] [3]: significantly attenuated
- Increase in BAL TGF-β [3]: significantly attenuated
- Increase in BAL total protein concentration (marker of alveolar-epithelial barrier permeability) [3]: significantly attenuated
